Measurements: the NIST ThermoML archive (doi:10.1021/je100484n)

What was measured:
[1] = 101 kPa, Liquid
[2] = refractive index (Na D-line) (dimensionless); conditions: 101.33 kPa, Liquid
[3] = refractive index (Na D-line) (dimensionless); xn = mol fraction of the nth substance listed; conditions: 101 kPa, Liquid
[4] = xn = mol fraction of the nth substance listed; conditions: 101 kPa, Liquid, x2 = 0

CC(C)(C)O [2-methylpropan-2-ol]
Conditions | mass density, 303.15 K [kg/m3] | mass density, 308.15 K [kg/m3] | mass density, 313.15 K [kg/m3] | mass density, 318.15 K [kg/m3] | mass density, 323.15 K [kg/m3] | refractive index, 303.15 K | refractive index, 308.15 K | refractive index, 313.15 K | refractive index, 318.15 K | refractive index, 323.15 K
[1] | 775.412 | 770.193 | 764.884 | 759.488 | 754.015 | – | – | – | – | –
[2] | – | – | – | – | – | 1.38222 | 1.37947 | 1.37667 | 1.37384 | 1.37097

CC(C)(C)O [2-methylpropan-2-ol] + NC1CCCCC1
[3], x1 = 1
Conditions | refractive index
303.15 K | 1.38222
308.15 K | 1.37947
313.15 K | 1.37667
318.15 K | 1.37384
323.15 K | 1.37097

NC1CCCCC1 [cyclohexylamine]
[2]
Conditions | refractive index
303.15 K | 1.45375
308.15 K | 1.45114
313.15 K | 1.44856
318.15 K | 1.44599
323.15 K | 1.44336

NC1CCCCC1 [cyclohexylamine] + CC(C)(C)O
refractive index, [3]
Conditions | 303.15 K | 308.15 K | 313.15 K | 318.15 K | 323.15 K
x2 = 0 | 1.45375 | 1.45114 | 1.44856 | 1.44599 | 1.44336
x2 = 0.0508 | 1.45149 | 1.44888 | 1.44629 | 1.44368 | 1.44108
x2 = 0.1002 | 1.44914 | 1.44655 | 1.44395 | 1.44132 | 1.43876
x2 = 0.1502 | 1.44664 | 1.44404 | 1.44142 | 1.43884 | 1.43629
x2 = 0.2001 | 1.44406 | 1.44146 | 1.43888 | 1.4363 | 1.43371
x2 = 0.3005 | 1.43846 | 1.43586 | 1.43328 | 1.43068 | 1.42812
x2 = 0.3991 | 1.4325 | 1.42991 | 1.42732 | 1.42471 | 1.42218
x2 = 0.4996 | 1.42579 | 1.42321 | 1.42064 | 1.41804 | 1.41553
x2 = 0.5998 | 1.41855 | 1.41598 | 1.41339 | 1.41077 | 1.40818
x2 = 0.6997 | 1.41063 | 1.40805 | 1.40544 | 1.40284 | 1.40018
x2 = 0.7999 | 1.40191 | 1.39934 | 1.39676 | 1.39405 | 1.3914
x2 = 0.8712 | 1.39554 | 1.39281 | 1.39012 | 1.38734 | 1.38459
x2 = 0.8992 | 1.39261 | 1.38996 | 1.38723 | 1.3845 | 1.38176
x2 = 0.9504 | 1.38751 | 1.3848 | 1.38207 | 1.37923 | 1.37642

NC1CCCCC1 [cyclohexylamine] + CCCCCCC
refractive index, [3]
Conditions | 303.15 K | 308.15 K | 313.15 K | 318.15 K | 323.15 K
x1 = 0.0501 | 1.38508 | 1.38246 | 1.37983 | 1.37719 | 1.37451
x1 = 0.1002 | 1.38768 | 1.38507 | 1.38246 | 1.37983 | 1.37717
x1 = 0.1501 | 1.39038 | 1.38778 | 1.38516 | 1.38255 | 1.37991
x1 = 0.2305 | 1.39503 | 1.39245 | 1.38984 | 1.38719 | 1.38449
x1 = 0.3004 | 1.3993 | 1.39673 | 1.3941 | 1.39149 | 1.38874
x1 = 0.401 | 1.40584 | 1.40324 | 1.40059 | 1.39797 | 1.39527
x1 = 0.4497 | 1.40915 | 1.40655 | 1.40392 | 1.40129 | 1.39851
x1 = 0.5597 | 1.41708 | 1.41446 | 1.41182 | 1.40915 | 1.40647
x1 = 0.6001 | 1.42001 | 1.41739 | 1.41478 | 1.41215 | 1.40951
x1 = 0.6498 | 1.4238 | 1.4212 | 1.41859 | 1.41595 | 1.41327
x1 = 0.6994 | 1.42771 | 1.4251 | 1.42248 | 1.41981 | 1.41719
x1 = 0.7999 | 1.43588 | 1.43327 | 1.43065 | 1.428 | 1.42528
x1 = 0.8992 | 1.44452 | 1.44189 | 1.43928 | 1.43667 | 1.43405
x1 = 1 | 1.45375 | 1.45114 | 1.44856 | 1.44599 | 1.44336

CCCCCCC [heptane]
Conditions | mass density, 303.15 K [kg/m3] | mass density, 308.15 K [kg/m3] | mass density, 313.15 K [kg/m3] | mass density, 318.15 K [kg/m3] | mass density, 323.15 K [kg/m3] | refractive index, 303.15 K | refractive index, 308.15 K | refractive index, 313.15 K | refractive index, 318.15 K | refractive index, 323.15 K
[1] | 675.229 | 670.941 | 666.621 | 662.273 | 657.896 | – | – | – | – | –
[2] | – | – | – | – | – | 1.38259 | 1.37995 | 1.37731 | 1.37463 | 1.37197

CCCCCCC [heptane] + CC(C)(C)O
[4]
Conditions | mass density [kg/m3]
303.15 K | 675.229
308.15 K | 670.941
313.15 K | 666.621
318.15 K | 662.273
323.15 K | 657.896

[3], x2 = 0
Conditions | refractive index
303.15 K | 1.38259
308.15 K | 1.37995
313.15 K | 1.37731
318.15 K | 1.37463
323.15 K | 1.37197

CCCCCCC [heptane] + NC1CCCCC1
[3], x2 = 0
Conditions | refractive index
303.15 K | 1.38259
308.15 K | 1.37995
313.15 K | 1.37731
318.15 K | 1.37463
323.15 K | 1.37197
